Assay results published in patent US20220362182A1, “METHODS FOR REVERSING HEPATIC STEATOSIS” (BRIGHTSEED, INC., priority 2020, published 2022).
Entries after “also recorded” stand apart in the source; their conditions may differ.

Legend:
SPNS2 mRNA = SPNS2 mRNA in primary human hepatocytes; assay type: cell-based; details: high fat media, 5, 15, 40 µM, Day 4 to Day 10
Description: Experiments with primary human hepatocytes were performed by CN-Bio (Cambridge, UK). Primary human hepatocytes (PHHs), human Kupffer cells (HKs) and human stellate cells (HSCs) were seeded onto CN-Bio's PhysioMimix LC12 MPS culture plates at 6×10^5 cells for PHHs and 6×10^4 cells for HKs and HSCs in 1.6 ml of CN-Bio's HEP-lean media with 5% FCS. Throughout the experiment the cells were maintained at a flow rate of 1 μl/s. After 24 h (Day 1) of seeding, the media was changed to HEP-lean media and the cells were incubated until day 4 to allow the cells to form microtissues. At day 4 post seeding, media was changed to HEP-fat media and treated with DMSO or NCT (5, 15, 40 μM). Media was replaced on days 6 and 8. Cells were harvested on day 10 for RNA extraction. Data are presented as mean ±SEM of three or more samples as indicated. Statistical significance was assessed using Student's t-test, ANOVA or R^2 coefficient of correlation.

HNF4α = biological target: T1, HNF4α (Mus musculus, UniProt P49698); assay: hepatic HNF4α expression in DIO mice; assay type: in vivo; details: 200 mg/kg bid IP, 14 days; for hepatic HNF4α protein (nuclear staining): 200 mg/kg
T1 construct: from tissue; host or cells: liver of C57BL/6 J DIO male mice
T1 sequence (P49698 1-474): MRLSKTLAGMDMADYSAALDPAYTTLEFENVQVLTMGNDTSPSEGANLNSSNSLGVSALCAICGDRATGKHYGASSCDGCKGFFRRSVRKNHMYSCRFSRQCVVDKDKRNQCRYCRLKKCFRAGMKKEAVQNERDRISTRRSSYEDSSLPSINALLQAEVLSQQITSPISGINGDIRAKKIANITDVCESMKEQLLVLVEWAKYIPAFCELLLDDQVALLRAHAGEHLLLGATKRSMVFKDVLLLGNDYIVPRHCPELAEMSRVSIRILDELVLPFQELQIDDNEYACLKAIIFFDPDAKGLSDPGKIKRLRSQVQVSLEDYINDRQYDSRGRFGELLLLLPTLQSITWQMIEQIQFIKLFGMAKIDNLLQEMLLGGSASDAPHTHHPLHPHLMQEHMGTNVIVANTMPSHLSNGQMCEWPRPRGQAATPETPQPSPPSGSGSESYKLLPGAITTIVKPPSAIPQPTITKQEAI
Description: Quantitative PCR (Q-PCR) from in vitro cell culture experiments used total RNA purified using RNeasy Kits (Qiagen). For liver tissue samples, total RNA was isolated using Trizol (Invitrogen) and prepared for RNAseq (mouse liver DMSO and NCT, N=3). cDNA was amplified using 3 μg of total RNA using qScript cDNA SuperMix (Quanta BioSciences, Beverly, Mass., USA). QPCR analysis was performed using SYBR® Select Master Mix (Applied Biosystems) and ABI 7900HT (Applied Biosystems, Thermo Fisher Scientific). The Ct values of mRNA expression were then normalized to the 18 s rRNA values and are expressed as fold change over samples from mice fed normal chow for in vivo experiments or DMSO controls for cell culture experiments.
For dose response experiments, mice were injected intraperitoneally with 10% DMSO as vehicle control or 4 different doses of NCT (30, 60, 120 and 240 mg/kg of body weight) dissolved in 10% DMSO. Mice received 2 doses per day with a 5 h interval between injections for 3 days. To test the effect of NCT (Sundia MediTech Company, Ltd., Custom synthesis), 200 mg/kg was injected IP bid for 14 days. On day 15, mice received a final dose of NCT followed by IP injection with 3 g/kg dextrose. One h later, blood samples were collected and mice were euthanized using pentobarbital. Total mouse, liver and epididymal fat pad weights were measured. Dissected liver samples were washed in cold PBS, cut into small pieces and distributed for analyses. For RNA isolation and ELISA, liver samples were snap frozen using liquid nitrogen and stored at −80° C. […]
Frozen liver sections were permeabilized using 0.3% Triton-X and incubated in antigen retrieval solution (Antigen retrieval citrate, Biogenex) at sub boiling temperature for 10 min. […] Slides were mounted using fluorescence mounting medium and images were obtained at 40× magnification using an Olympus IX71 fluorescence microscope. Fluorescence intensity of HNF4α-stained nuclei was calculated using MetaMorph TL software (version 7.6.5.0, Olympus).

dihydroceramides = assay: lipidomic analysis of livers from mice injected IP; assay type: in vivo, mouse; details: livers from mice injected IP for 2 weeks
Description: Ceramides and dihydroceramides were measured in the UCSD Lipidomics Core Facility as previously described (Quehenberger et al.). Briefly, samples were extracted using the butanol: methanol (BUME) method. The lipid layer was collected and run on a Thermo-Vanquish UPLC (Thermo Scientific) with a Cortecs T3 (C18), 2.1 mm×150 mm; 1.8 uT3 column and a binary solvent system. Mass spectrometry employed a Thermo Q Exactive instrument with MS/MS data dependent acquisition scan mode and LipidSearch software (Thermo Fisher Scientific).

SMILES: O=C(/C=C/c1ccc(O)c(O)c1)NCCc1ccc(O)cc1 [NCT, N-trans-caffeoyltyramine]
- SPNS2 mRNA (SPNS2 mRNA): did not induce a change in SPNS2 expression
- hepatic HNF4α mRNA (HNF4α): reversed the loss
- hepatic HNF4α protein (nuclear staining) (HNF4α): reversed the loss of HNF4α protein; also recorded: recovery of normal hepatic HNF4α expression
- hepatic HNF4α protein (nuclear staining) (HNF4α; listed as N-trans-caffeoyltyramine): reversed that reduction; also recorded: increased the HNF4a staining
- decrease in ceramide/dihydroceramide ratio in liver (dihydroceramides): evident as well
